Experiments:
[1] = Determination of solubility in deionized water (HPLC, external standard); settings: 25 °C, water, thermodynamic from solid
[2] = In vitro metabolic stability in human plasma; format: in vitro ADME; settings: human, plasma, 37° C., 10 μM compound, read-out: Human plasma T1/2
Procedure: (§1) This example detects the metabolic stability of the compounds of the present disclosure in human (rat) plasma and intestinal S9 in vitro. In a human (rat) plasma reaction system, 990 μl of human (rat) plasma was taken and incubated at 37° C. for 5 minutes, and 10 μl of the compound mother liquor was used to initiate the reaction. In the human (rat) intestinal S9 stability experiment, in the order shown in Table 2 below, the samples were added and incubated in a 37° C. water bath to initiate the reaction, each sample performed in triplicates. Respectively, at 1 minute, 2 minutes, 5 minutes, 15 minutes, 30 minutes after the reaction began, 100 μL of each was taken and added to a centrifuge tube containing 400 μL of 0° C. precooled internal standard working solution. The reaction was terminated, vortexed and mixed for 1 minute, centrifuged at 10000×g for 10 minutes in a 4° C. precooled high-speed centrifuge, and the supernatant was detected with HPLC. The test results were used to calculate metabolic half-life using WinNonlin (version 6.2 Pharsight, Mountain View, Calif.) with a non-compartmental model.
(§2) Compound stock solution concentration: 1 mM
(§3) Reaction matrix: human (rat) plasma, intestinal S9 purchased from Research Institute for Liver Diseases (Shanghai) Co., Ltd.

[3] = system: Candida albicans ATCC10231; assay: Systemic fungal infection in mice, intragastric administration; format: in vivo, ICR mice; settings: Candida albicans, ATCC10231, po
Procedure: (§4) ICR mice, weighing 18-22 g, male, provided by Hubei Experimental Animal Center.
Prior to the experiment, a small amount of Candida albicans was picked from an SDA medium kept at 4° C. with an inoculation loop and inoculated into 1 ml YPD culture medium, cultured at 30° C. with 200 rpm shaking and activated for 16 hours, so that the fungus was in the late stage of exponential growth. Counted with a hemocytometer and the fungal solution concentration was adjusted to 1×10^3 to 5×10^3 CFU/ml with RPMI1640 medium. Monoclonal Candida albicans on SDA plate was picked up, inoculated into 1 ml YPD (Yeast Extract Peptone Dextrose Medium, the same below) culture medium, cultured at 35° C., 200 rpm for 16 hours until late exponential growth phase. Candida albicans was inoculated into fresh medium for culturing for 6 hours at 1%, centrifuged at 1000×g for 5 minutes, washed with physiological saline three times until the supernatant was colorless, counted with a hemocytometer, and the cell concentration was adjusted to 5×10^6 cells/ml. A tail vein injection of 0.1 ml/10 g caused a systemic fungal infection in mice. […] A total of 7 days of observations were performed. All dead mice were burned with ethanol.

[4] = In vitro metabolic stability in rat plasma; format: in vitro ADME; settings: rat, plasma, 37° C., 10 μM compound, read-out: Rat plasma T1/2
Procedure: as §1, §2, §3

[5] = In vitro metabolic stability in rat intestine S9; format: in vitro ADME; settings: rat, 37° C., 10 μM compound, 1 mg/mL S9, NADPH regeneration system, read-out: Rat intestine S9 T1/2
Procedure: as §1, §2, §3

[6] = In vitro metabolic stability in human intestine S9; format: in vitro ADME; settings: human, 37° C., 10 μM compound, 1 mg/mL S9, NADPH regeneration system, read-out: Human intestine S9 T1/2
Procedure: as §1, §2, §3

[7] = system: Candida albicans ATCC10231; assay: Systemic fungal infection in mice, intravenous administration; format: in vivo, ICR mice
Procedure: as §4
Prior to the experiment, a small amount of Candida albicans was picked from an SDA (sacharomyces agar, the same below) medium kept at 4° C. with an inoculation loop and inoculated into 1 ml YPD (Yeast Extract Peptone Dextrose Medium) culture medium, cultured at 30° C. with 200 rpm shaking and activated for 16 hours, so that the fungus was in the late stage of exponential growth. Counted with a hemocytometer and the fungal solution concentration was adjusted to 1×10^3-5×10^3 CFU/ml with RPMI1640 medium (Roswell Park Memorial Institute 1640, the same below). Monoclonal Candida albicans on SDA plate was picked up, inoculated into 1 ml YPD (Yeast Extract Peptone Dextrose Medium, the same below) culture medium, cultured at 35° C., 200 rpm for 16 hours until late exponential growth phase. Candida albicans was inoculated into fresh medium for culturing for 6 hours at 1%, centrifuged at 1000×g for 5 minutes, washed with physiological saline three times until the supernatant was colorless, counted with a hemocytometer, and the cell concentration was adjusted to 5×10^6 cells/ml. A tail vein injection of 0.1 ml/10 g caused a systemic fungal infection in mice. […] A total of 7 days of observations were performed. All dead mice were burned with ethanol.

[8] = 24 h, read-out: survival rate of mice, day 1, 20 mg/kg intragastric once daily for 5 days, day 1
[9] = 48 h, read-out: survival rate of mice, day 2, 20 mg/kg intragastric once daily for 5 days, day 2
[10] = 72 h, read-out: survival rate of mice, day 3, 20 mg/kg intragastric once daily for 5 days, day 3
[11] = 96 h, read-out: survival rate of mice, day 4, 20 mg/kg intragastric once daily for 5 days, day 4
[12] = 120 h, read-out: survival rate of mice, day 5, 20 mg/kg intragastric once daily for 5 days, day 5
[13] = 144 h, read-out: survival rate of mice, day 6, 20 mg/kg intragastric once daily for 5 days, day 6
[14] = 168 h, read-out: survival rate of mice, day 7, 20 mg/kg intragastric once daily for 5 days, day 7
[15] = 24 h, read-out: survival rate of mice, day 1
[16] = 48 h, read-out: survival rate of mice, day 2
[17] = 72 h, read-out: survival rate of mice, day 3
[18] = 96 h, read-out: survival rate of mice, day 4
[19] = 120 h, read-out: survival rate of mice, day 5
[20] = 144 h, read-out: survival rate of mice, day 6
[21] = 168 h, read-out: survival rate of mice, day 7
[22] = 24 h, 20 mg/kg intragastric once daily for 5 days, day 1, read-out: survival rate of mice, day 1
[23] = 48 h, 20 mg/kg intragastric once daily for 5 days, day 2, read-out: survival rate of mice, day 2
[24] = 72 h, 20 mg/kg intragastric once daily for 5 days, day 3, read-out: survival rate of mice, day 3
[25] = 96 h, 20 mg/kg intragastric once daily for 5 days, day 4, read-out: survival rate of mice, day 4
[26] = 120 h, 20 mg/kg intragastric once daily for 5 days, day 5, read-out: survival rate of mice, day 5
[27] = 144 h, 20 mg/kg intragastric once daily for 5 days, day 6, read-out: survival rate of mice, day 6
[28] = 168 h, 20 mg/kg intragastric once daily for 5 days, day 7, read-out: survival rate of mice, day 7

Structure (SMILES)	solubility at 30 min [1] [mg/mL]	half-life at 10 µM [2] [min]	half-life at 10 µM [4] [min]	half-life at 10 µM ([5]; pH 7.4) [min]	half-life at 10 µM [6] [min]	responders at 20 mg/kg [3, 22] [%]	responders at 20 mg/kg [3, 23] [%]	responders at 20 mg/kg [3, 24] [%]	responders at 20 mg/kg [3, 25] [%]	responders at 20 mg/kg [3, 26] [%]	responders at 20 mg/kg [3, 27] [%]	responders at 20 mg/kg [3, 28] [%]	other results
CC[C@@H]([C@H](C)OC(=O)OC(C)OC(=O)CCCCCOP(=O)([O-])[O-])n1ncn(-c2ccc(N3CCN(c4ccc(OC[C@@H]5CO[C@@](Cn6cncn6)(c6ccc(F)cc6F)C5)cc4)CC3)cc2)c1=O.[Na+].[Na+] (stereo partly drawn) [ST0063]	> 50	0.85 ± 0.45	1.21 ± 0.75	19.4 ± 5.69	16.3 ± 2.12								responders at 20 mg/kg [3, 8]: 90%; responders at 20 mg/kg [3, 9]: 90%; responders at 20 mg/kg [3, 10]: 80%; responders at 20 mg/kg [3, 11]: 80%; responders at 20 mg/kg [3, 12]: 80%; responders at 20 mg/kg [3, 13]: 80%; responders at 20 mg/kg [3, 14]: 80%; responders at 20 mg/kg [7, 15]: 100%; responders at 20 mg/kg [7, 16]: 100%; responders at 20 mg/kg [7, 17]: 90%; responders at 20 mg/kg [7, 18]: 90%; responders at 20 mg/kg [7, 19]: 90%; responders at 20 mg/kg [7, 20]: 90%; responders at 20 mg/kg [7, 21]: 90%
CC[C@@H](C(C)OC(=O)OC(C)OC(=O)CCCCCOS(=O)(=O)[O-])n1ncn(-c2ccc(N3CCN(c4ccc(OC[C@@H]5CO[C@@](Cn6cncn6)(c6ccc(F)cc6F)C5)cc4)CC3)cc2)c1=O.[Na+] (stereo partly drawn) [ST0079]	> 50	2.56 ± 0.42	2.06 ± 0.77	27.9 ± 11.2	28.7 ± 8.9	90	90	90	80	80	70	70	
CC[C@@H](C(C)OC(=O)OC(C)OC(=O)CCCCOS(=O)(=O)[O-])n1ncn(-c2ccc(N3CCN(c4ccc(OC[C@@H]5CO[C@@](Cn6cncn6)(c6ccc(F)cc6F)C5)cc4)CC3)cc2)c1=O.[Na+] (stereo partly drawn) [ST0078]	> 50	2.22 ± 0.58	2.57 ± 0.74	28.2 ± 5.65	24.2 ± 8.75	90	90	80	70	70	70	70	
CC[C@@H](C(C)OC(=O)OC(C)OC(=O)CCCCCCOP(=O)([O-])[O-])n1ncn(-c2ccc(N3CCN(c4ccc(OC[C@@H]5CO[C@@](Cn6cncn6)(c6ccc(F)cc6F)C5)cc4)CC3)cc2)c1=O.[Na+].[Na+] (stereo partly drawn) [ST0070]	> 50	0.95 ± 0.31	1.12 ± 0.56	17.6 ± 5.85	20.2 ± 8.02								responders at 20 mg/kg [3, 8]: 100%; responders at 20 mg/kg [3, 9]: 90%; responders at 20 mg/kg [3, 10]: 90%; responders at 20 mg/kg [3, 11]: 90%; responders at 20 mg/kg [3, 12]: 80%; responders at 20 mg/kg [3, 13]: 70%; responders at 20 mg/kg [3, 14]: 70%; responders at 20 mg/kg [7, 15]: 100%; responders at 20 mg/kg [7, 16]: 90%; responders at 20 mg/kg [7, 17]: 90%; responders at 20 mg/kg [7, 18]: 90%; responders at 20 mg/kg [7, 19]: 90%; responders at 20 mg/kg [7, 20]: 90%; responders at 20 mg/kg [7, 21]: 90%
CC[C@@H]([C@H](C)O)n1ncn(-c2ccc(N3CCN(c4ccc(OC[C@@H]5CO[C@@](Cn6c[n+](C(C)OC(=O)OCC[C@@H](N)C(=O)O)cn6)(c6ccc(F)cc6F)C5)cc4)CC3)cc2)c1=O.Cl.[Cl-] (stereo partly drawn) [ST0018]		18.6 ± 5.63	11.5 ± 1.23										half-life at 10 µM ([5]; intestinal S9, pH 7.4): 45.2 ± 6.95 min; half-life at 10 µM ([6]; intestinal S9): 50.1 ± 5.98 min
CC[C@@H](C(C)OC(=O)OC(C)OC(=O)CCCCCCCCCOP(=O)([O-])[O-])n1ncn(-c2ccc(N3CCN(c4ccc(OC[C@@H]5CO[C@@](Cn6cncn6)(c6ccc(F)cc6F)C5)cc4)CC3)cc2)c1=O.[Na+].[Na+] (stereo partly drawn) [ST0072]		18.3 ± 1.97	25.6 ± 13										half-life at 10 µM ([5]; intestinal S9, pH 7.4): 39.9 ± 10.8 min; half-life at 10 µM ([6]; intestinal S9): 46.8 ± 12.8 min
CC[C@@H]([C@H](C)OC(=O)OC(C)OC(=O)CCCCCCCOS(=O)(=O)[O-])n1ncn(-c2ccc(N3CCN(c4ccc(OC[C@@H]5CO[C@@](Cn6cncn6)(c6ccc(F)cc6F)C5)cc4)CC3)cc2)c1=O.[Na+] (stereo partly drawn) [ST0082]	> 50	8.99 ± 2.52	9.36 ± 1.56	52.6 ± 8.69	42.1 ± 13.7	90	70	70	70	70	70	60	
CC[C@@H]([C@H](C)OC(=O)OC(C)OC(=O)Cc1ccc(OS(=O)(=O)[O-])cc1)n1ncn(-c2ccc(N3CCN(c4ccc(OC[C@@H]5CO[C@@](Cn6cncn6)(c6ccc(F)cc6F)C5)cc4)CC3)cc2)c1=O.[Na+] (stereo partly drawn) [ST0080]		12.8 ± 3.57	13.3 ± 4.78	45.4 ± 11.3	40.3 ± 12.7	90	90	90	80	70	70	60	

— patent US10517867B2, “Posaconazole derivative, pharmaceutical composition and use thereof” (priority 2016, dated 2019)
